According to patent US20210179680A1, “POLYPEPTIDE, DERIVATIVES THEREOF, AND APPLICATION THEREOF IN PREPARATION OF DRUGS HAVING RESISTANCE TO PULMONARY FIBROSIS” (priority 2016, published 2021):
Bridge positions count the residues as written; N and C are the ends. Square brackets hold non-standard residues; d marks the D form. Peptide text beside a SMILES is read from it. S5 = C=CCCC[C@](C)(N)C(=O)O

Columns and labels:
[1] = test system: mice with bleomycin-induced pulmonary fibrosis; assay: Lung weight index in mice with pulmonary fibrosis; format: in vivo, C57BL/6 mice; conditions: 2 mg/kg i.p., after 28 days, lung weight (mg) divided by body weight (g)
Description: (§1) Male C57BL/6 mice were fasted overnight, then anesthetized with 45 mg/kg sodium pentobarbital by injection intraperitoneally (i.p.), and intratracheally injected with bleomycin at a dose of 3 U/kg. The specific operation steps are as follows: cut the neck skin of the mouse with as little trauma as possible, expose the trachea with the assistance of elbow ophthalmic forceps, puncture the trachea and inject about 50 μL of bleomycin into the trachea with a microsyringe, rotate the mouse quickly and stand it upright for 5 minutes in order to make bleomycin evenly enter the left and right lobe, thereby constructing an animal model. The whole operation was performed at a surgical table at about […]. Mice in the sham operation group were intratracheally injected with an equal amount of physiological saline for injection.
Pulmonary fibrosis model was prepared according to the method described in Example 2, and administered in groups according to Table 3. After 28 days, the lungs of the mice were finely stripped and weighed, and a lung weight index was obtained from dividing the lung weight (mg) by the body weight (g) of the mice. […] In FIG. 7, “##” represents that P value is less than 0.01 when the lung weight index of administration group was compared with that of the sham operation group; “*” represents that P value is less than 0.05 when the lung weight index of administration group was compared with that of the bleomycin group; “**” represents that P value is less than 0.01 when the lung weight index of administration group was compared with that of bleomycin group.
Pulmonary fibrosis models were made according to the method described in Example 2 and administered in groups according to Table 9. After 28 days, the lungs of the mice were finely stripped and weighed, and the lung weight (mg) was divided by the body weight (g) of the mice to obtain a lung weight index. […] In FIG. 13, “##” represents that P value is less than 0.01 when the lung weight index of the administration groups were compared with that of the sham operation group; “*” represents that P value is less than 0.05 and “**” represents that P value is less than 0.01 when the lung weight index of the administration groups were compared with bleomycin group.

[2] = test system: mice with bleomycin-induced pulmonary fibrosis; assay: Pulmonary function (Flexivent) in mice with pulmonary fibrosis; format: in vivo, C57BL/6 mice; conditions: 2 mg/kg i.p.
Description: as §1
(§2) Pulmonary function is a gold indicator for clinical detection of pulmonary fibrosis in patients. The decline of lung function is generally accompanied by an aggravation of fibrosis, while the improvement of lung function generally represents the recovery of lung tissue structure. Pulmonary fibrosis models were prepared according to the method described in Example 2 and administered in groups according to Table 3. On the 28th day after the construction of the animal model, the mice were anesthetized with sodium pentobarbital (45 mg/kg, i.p.). Lung function was tested by the Flexivent Small-animal respiratory mechanics and the testing methods were TLC and SnapShots (Testing method refers to Lv X, Wang X, Li K, et al. Rupatadine Protects against Pulmonary Fibrosis by Attenuating PAF-Mediated Senescence in Rodents [J]. PloS one, 2013, 8(7): e68631).
as §2, with “lung function also generally represents” for “lung function generally represents”, “to Table 9. 28 days later, the mice” for “to Table 3. On the 28th day after the construction of the animal model, the mice”, “Senescence in Rodents[J]. PloS one,” for “Senescence in Rodents [J]. PloS one,”

[3] = Table 3 groups, 28th day after model construction

Compound | Lung weight index ([1]; Table 3 groups) | Dynamic compliance (mL/cmH2O) [2, 3] | Dynamic elasticity (cmH2O./mL) [2, 3] | Dynamic resistance (cmH2O · s/Ml) [2, 3] | Inspiratory capacity [2, 3] | pulmonary function of mice with pulmonary fibrosis (in words) ([2]; Table 3 groups, FIG. 11) | Lung weight index ([1]; Table 9 groups) | Dynamic compliance (mL/cmH2O) ([2]; Table 9 groups, 28 days later) | Dynamic elasticity (cmH2O./mL) ([2]; Table 9 groups, 28 days later) | Dynamic resistance (cmH2O · s/Ml) ([2]; Table 9 groups, 28 days later) | Inspiratory capacity ([2]; Table 9 groups, 28 days later) | pulmonary function of mice with pulmonary fibrosis (in words) ([2]; Table 9 groups, FIG. 17)
CSCC[C@H](NC(=O)[C@H](CC(C)C)NC(=O)[C@@H](N)Cc1c[nH]cn1)C(=O)N[C@@H](C)C(=O)N[C@@H](CS)C(=O)N[C@@H](Cc1ccccc1)C(=O)N[C@@]1(C)CCCC=CCCC[C@@](C)(C(=O)N[C@@H](CC(C)C)C(=O)N[C@@H](CCCCN)C(=O)N[C@@H](CCCCN)C(=O)N[C@@H](CCCNC(=N)N)C(=O)O)NC(=O)[C@H](CCCCN)NC(=O)[C@H](C)NC(=O)[C@H](CS)NC1=O [S7, His-Leu-Met-Ala-Cys-Phe-S5-Cys-Ala-Lys-S5-Leu-Lys-Lys-Arg] (H-HLMACF[S5]CAK[S5]LKKR-OH; staple 7-11; N-terminus and C-terminus assumed) | 7.675 | 0.29 mL/cmH2O | 51 cmH2O./mL | 0.8833 cmH2O · s/Ml | 0.684 mL | improved | – | – | – | – | – | –
CSCC[C@H](NC(=O)[C@H](CC(C)C)NC(=O)[C@@H](N)Cc1c[nH]cn1)C(=O)N[C@@H](C)C(=O)N[C@@H](CS)C(=O)N[C@@H](Cc1ccccc1)C(=O)N[C@H](C(=O)N[C@@]1(C)CCCC=CCCC[C@@](C)(C(=O)N[C@@H](CCCCN)C(=O)N[C@@H](CCCCN)C(=O)N[C@@H](CCCNC(=N)N)C(=O)O)NC(=O)[C@H](CCCCN)NC(=O)[C@H](CCCCN)NC(=O)[C@H](C)NC1=O)[C@@H](C)O [S8, His-Leu-Met-Ala-Cys-Phe-Thr-S5-Ala-Lys-Lys-S5-Lys-Lys-Arg] (H-HLMACFT[S5]AKK[S5]KKR-OH; staple 8-12; N-terminus and C-terminus assumed) | 8.775 | 0.2583 mL/cmH2O | 66.5 cmH2O./mL | 1.35 cmH2O · s/Ml | 0.626 mL | improved | – | – | – | – | – | –
CSCC[C@H](NC(=O)[C@H](CC(C)C)NC(=O)[C@@H](N)Cc1c[nH]cn1)C(=O)N[C@@H](C)C(=O)N[C@@H](CS)C(=O)N[C@@H](Cc1ccccc1)C(=O)N[C@H](C(=O)N[C@@H](CS)C(=O)N[C@@]1(C)CCCC=CCCC[C@@](C)(C(=O)N[C@@H](CCCCN)C(=O)N[C@@H](CCCNC(=N)N)C(=O)O)NC(=O)[C@H](CC(C)C)NC(=O)[C@H](CCCCN)NC(=O)[C@H](CCCCN)NC1=O)[C@@H](C)O [S9, His-Leu-Met-Ala-Cys-Phe-Thr-Cys-S5-Lys-Lys-Leu-S5-Lys-Arg] (H-HLMACFTC[S5]KKL[S5]KR-OH; staple 9-13; N-terminus and C-terminus assumed) | 7.4125 | 0.27 mL/cmH2O | 44.5 cmH2O./mL | 1.033 cmH2O · s/Ml | 0.686 mL | improved | – | – | – | – | – | –
CSCC[C@H](NC(=O)[C@H](CC(C)C)NC(=O)[C@@H](N)Cc1c[nH]cn1)C(=O)N[C@@H](C)C(=O)N[C@@H](CS)C(=O)N[C@@H](Cc1ccccc1)C(=O)N[C@H](C(=O)N[C@@H](CS)C(=O)N[C@@H](C)C(=O)N[C@@]1(C)CCCC=CCCC[C@@](C)(C(=O)N[C@@H](CCCNC(=N)N)C(=O)O)NC(=O)[C@H](CCCCN)NC(=O)[C@H](CC(C)C)NC(=O)[C@H](CCCCN)NC1=O)[C@@H](C)O [S10, His-Leu-Met-Ala-Cys-Phe-Thr-Cys-Ala-S5-Lys-Leu-Lys-S5-Arg] (H-HLMACFTCA[S5]KLK[S5]R-OH; staple 10-14; N-terminus and C-terminus assumed) | 8.8875 | 0.2333 mL/cmH2O | 49.5 cmH2O./mL | 1.367 cmH2O · s/Ml | 0.562 mL | improved | – | – | – | – | – | –
CSCC[C@H](NC(=O)[C@H](CC(C)C)NC(=O)[C@@H](N)Cc1c[nH]cn1)C(=O)N[C@@H](C)C(=O)N[C@@H](CS)C(=O)N[C@@H](Cc1ccccc1)C(=O)N[C@H](C(=O)N[C@@H](CS)C(=O)N[C@@H](C)C(=O)N[C@@H](CCCCN)C(=O)N[C@@]1(C)CCCC=CCCC[C@@](C)(C(=O)O)NC(=O)[C@H](CCCCN)NC(=O)[C@H](CCCCN)NC(=O)[C@H](CC(C)C)NC1=O)[C@@H](C)O [S11, His-Leu-Met-Ala-Cys-Phe-Thr-Cys-Ala-Lys-S5-Leu-Lys-Lys-S5] (H-HLMACFTCAK[S5]LKK[S5]-OH; staple 11-15; N-terminus and C-terminus assumed) | 9.2875 | 0.235 mL/cmH2O | 53 cmH2O./mL | 1.267 cmH2O · s/Ml | 0.658 mL | improved | – | – | – | – | – | –
S19: chimeric polypeptide Pep2-MR2, amino acid sequence SEQ ID NO: 19 (HLYVSPWGGHLMACFTCAKKLKKR; chimeric polypeptide Pep2-MR2 S19) | – | – | – | – | – | – | 8.675 | 0.33 mL/cmH2O | 38.67 cmH2O./mL | 1.143 cmH2O · s/Ml | 0.692 mL | improved
S20: chimeric polypeptide TAT-MR2, amino acid sequence SEQ ID NO: 20 (YGRKKRRQRRRGGHLMACFTCAKKLKKR; chimeric polypeptide TAT-MR2 S20) | – | – | – | – | – | – | 10.0625 | 0.264 mL/cmH2O | 52.17 cmH2O./mL | 1.588 cmH2O · s/Ml | 0.422 mL | improved
S21: chimeric polypeptide Antp-MR2, amino acid sequence SEQ ID NO: 21 (RQIKIWFQNRRMKWKKGGHLMACFTCAKKLKKR; chimeric polypeptide Antp-MR2 S21) | – | – | – | – | – | – | 11.2125 | 0.264 mL/cmH2O | 55.33 cmH2O./mL | 1.355 cmH2O · s/Ml | 0.616 mL | improved
